Measured values reported in patent US12115172B2, “Sulfate-free cleansing composition that confers high salicylic acid deposition” (L'OREAL, priority 2021, dated 2024).

Assay: HLB value of the surfactant
Type: physicochemical
Settings: of the 30% anionic surfactant used in the composition
Excerpt: The term “Hydrophilic-Lipophilic Balance” or “HLB,” refers to an empirical expression for the relationship of the hydrophilic and hydrophobic groups of an emulsifier. This term is well known to those skilled in the art. See, e.g., “The HLB system.

SODIUM LAUROYL SARCOSINATE
HLB VALUE: 29.8

CCCCCCCCCCCCOS(=O)(=O)[O-].[Na+] [SODIUM LAURYL SULFATE]
HLB VALUE: 40.1

SODIUM COCOYL GLYCINATE
HLB VALUE: 14

DECYL GLUCOSIDE (APGS)
HLB VALUE: 13
